According to ChEMBL document CHEMBL4689842, “EUbOPEN Chemogenomics Library wave 1” (2021):

Assays:
[1] = tested on: HEK-293T; experiment: Incucyte cell viability with HEK293T; assay type: toxicity, cell-based; settings: human, 10 µM, compound concentration 10 uM
[2] = tested on: U2OS; experiment: Incucyte cell viability with U2OS; assay type: toxicity, cell-based; settings: human, 10 µM, compound concentration 10 uM
[3] = 0 h, replicate number 1, timepoint 0 hours
[4] = 0 h, replicate number 2, timepoint 0 hours
[5] = 6 h, replicate number 1, timepoint 6 hours
[6] = 12 h, replicate number 1, timepoint 12 hours
[7] = 18 h, replicate number 1, timepoint 18 hours
[8] = 24 h, replicate number 1, timepoint 24 hours
[9] = 24 h, replicate number 2, timepoint 24 hours
[10] = 6 h, replicate number 2, timepoint 6 hours
[11] = 12 h, replicate number 2, timepoint 12 hours
[12] = 18 h, replicate number 2, timepoint 18 hours
Note: filed as whole numbers so only -1 and 0 and 1 occur.

Compound	Growth Rate [1, 3]	Growth Rate [1, 4]	Growth Rate [1, 5]	Growth Rate [1, 6]	Growth Rate [1, 7]	Growth Rate [1, 8]	Growth Rate [2, 4]	Growth Rate [2, 5]	Growth Rate [2, 6]	Growth Rate [2, 7]	Growth Rate [2, 8]	Growth Rate [2, 3]	Growth Rate [2, 9]	Growth Rate [1, 10]	Growth Rate [1, 9]	Growth Rate [2, 10]	Growth Rate [2, 11]	Growth Rate [2, 12]	Growth Rate [1, 11]
C[C@]12CC[C@@H]3c4ccc(O)cc4CC[C@H]3[C@@H]1CC[C@@H]2O [ESTRADIOL]	1	0	0	0	0	0	0	0	0	0	0	–	–	–	–	–	–	–	–
Cc1c[nH]c2nccc(Oc3c(F)cc(Nc4cc(Cl)nc(N)n4)cc3F)c12 [BAY-549]	0	–	0	0	0	0	0	0	0	0	0	–	–	–	–	–	–	–	–
Cc1cc(NC(=O)c2cccc(S(F)(F)(F)(F)F)c2)cc(-n2ccn3nc(-c4cccnc4)cc23)c1 [BAY-309]	1	–	0	0	0	0	0	0	0	0	0	–	–	–	–	–	–	–	–
CN(c1ccccc1CNc1nc(Nc2ccc3c(c2)CC(=O)N3)ncc1C(F)(F)F)S(C)(=O)=O	–	–	0	0	0	0	–	0	0	0	0	0	–	–	–	–	–	–	–
C=CC(=O)Nc1cccc(Sc2nc(Nc3ccc(N4CCN(C)CC4)cc3)ncc2Cl)c1	–	–	0	0	0	0	–	0	0	0	0	0	–	–	–	–	–	–	–
C=CC(=O)Nc1cccc(Oc2nc(Nc3ccc(N4CCN(C)CC4)cc3OC)ncc2Cl)c1	–	–	0	0	0	0	–	0	0	0	0	0	–	–	–	–	–	–	–
C=CC(=O)Nc1ccc2[nH]c(=O)n(C3CCN(Cc4ccc(-c5nc6cc[nH]c(=O)c6cc5-c5ccccc5)cc4)CC3)c2c1 [Borussertib]	0	1	0	0	0	0	1	1	1	1	1	–	0	–	–	–	–	–	–
CC(C)NC(=O)N1CC[C@H](NC2=Nc3cc(F)ccc3N(CC(F)F)c3ccc(Cl)cc32)C1	0	–	–	1	1	1	–	0	0	0	0	0	–	0	0	1	1	1	–
CC(C)OC(=O)N1CCC(Oc2ncnc3c2cnn3-c2ccc(S(C)(=O)=O)cc2F)CC1	–	1	0	0	0	0	–	–	1	1	1	0	0	–	–	0	0	0	–
O=c1cc(N2CCOCC2)oc2c(-c3cccc4c3sc3ccccc34)cccc12	–	–	0	0	0	0	–	0	0	0	0	0	–	–	–	1	1	–	–
COc1cc2ncn(-c3cc(OCc4ccccc4C(F)(F)F)c(C(N)=O)s3)c2cc1OC [GW843682X]	0	–	–	0	0	0	0	–	1	0	0	–	–	–	–	–	0	–	–
CC(C)CC(=O)Nc1[nH]nc2c1CN(C(=O)C1CCN(C)CC1)C2(C)C [PHA-793887]	1	–	0	0	0	0	0	0	0	0	0	1	–	–	–	–	–	–	–
COC(=O)C1=C(C)NC(C)=C(C(=O)OCCCN2CCC(c3ccccc3)(c3ccccc3)CC2)[C@H]1c1cccc([N+](=O)[O-])c1 [NIGULDIPINE]	–	0	0	0	0	0	–	–	0	0	0	0	–	–	–	0	–	–	–
O=C(c1cc2c(cc1F)OC(c1ccc(F)cc1)(c1ccc(Cl)cc1Cl)O2)N1CCOCC1 (centres undefined)	0	–	0	0	0	0	–	–	0	0	0	0	–	–	–	1	–	–	–
CC(C)(C)NC[C@H](O)COc1nsnc1N1CCOCC1 [TIMOLOL]	0	–	0	0	0	0	–	–	–	1	1	0	–	–	–	1	1	–	1
Cc1cccc(CN2CCN(C(c3ccccc3)c3ccc(Cl)cc3)CC2)c1.Cl.Cl (centres undefined)	1	0	0	0	0	0	1	–	–	1	1	0	0	–	–	0	0	0	–
O=c1[nH]c2ccccc2n1C1CCN(Cc2ccc(-c3[nH]c4cc5ncnc5cc4nc3-c3ccccc3)cc2)CC1	–	1	0	0	0	0	–	–	0	0	0	0	1	–	–	–	1	1	–
COc1cc(Nc2nccc(-c3cnn4nc(OC)ccc34)n2)cc(C(F)(F)F)c1	–	–	0	0	0	0	0	0	0	0	0	1	–	–	–	–	–	–	–
CNCc1ccccc1-c1csc([C@@H](C)Nc2nc(C)nc3cc(OC)c(OC)cc23)c1 [BAY-293]	–	–	0	0	0	0	–	0	0	0	0	0	–	–	–	1	–	–	–
Cl.O=C(O)c1cc(-c2ccc(C3CCNCC3)cc2)c2ccc(-c3ccc(C(F)(F)F)cc3)cc2c1	0	–	0	0	0	0	0	0	0	0	0	1	–	1	–	–	–	–	–
CNC(=O)Nc1ccc2c(c1)[C@@]1(CC2)OC(=O)N(CC(=O)N(Cc2ccc(F)cc2)[C@@H](C)C(F)(F)F)C1=O [A-486]	1	–	0	0	0	0	–	0	0	0	0	0	1	–	–	–	1	–	–
CCc1nn(CCCN2CCN(c3cccc(Cl)c3)CC2)c(=O)n1CCOc1ccccc1.Cl [NEFAZODONE HYDROCHLORIDE]	–	0	0	0	0	0	–	1	0	1	0	–	–	–	–	–	–	0	–
C[C@]1(O)C[C@@H](c2nc(-c3ccc4ccc(-c5ccccc5)nc4c3)c3c(N)nccn32)C1 [LINSITINIB]	–	1	0	0	0	0	–	0	0	0	0	1	–	–	–	–	–	–	–
